Results as given in patent US20240067693A1, “POLYPEPTIDES AND USES THEREOF” (MEDIMMUNE LIMITED, priority 2020, published 2024).
Numbered stars: 1 amine (or outer) side, 2 acyl side, 3 side chain; on linkers, the order of the positions; unused ones are H or OH. Bridge positions count the residues as written; N and C are the ends. Square brackets hold non-standard residues; d marks the D form. Side chains are listed from the residue outwards. Peptide text beside a SMILES is read from it. * marks the point of attachment. C18 diacid = O=C(O)CCCCCCCCCCCCCCCCC(=O)*; γGlu = O=C(O)[C@H](CCC(=O)[*:2])N[*:1]; αMeS = C[C@](N)(CO)C(=O)O; Aib = CC(C)(N)C(=O)O

What was measured:
[1] = target: T1, human amylin receptor (calcitonin receptor co-expressed with receptor activity modifying protein, RAMP3) (hAMYR3) (Homo sapiens, UniProt O60896+P30988); assay: cAMP production in 1321N1 cells with stable recombinant expression of human amylin receptor (hAMYR3); assay type: cell-based; conditions: for Ratio (selectivity hAMYR vs hCTR, ratio of EC50 values at the two receptors): EC50 hCTR / EC50 hAMYR3; for EC50: cAMP, 1321N1 cells, assay buffer with 0.1% BSA, read-out: EC50 (pM) hAMYR3
T1 construct: expressed in transfected cells
T1 sequence (P30988 25-474): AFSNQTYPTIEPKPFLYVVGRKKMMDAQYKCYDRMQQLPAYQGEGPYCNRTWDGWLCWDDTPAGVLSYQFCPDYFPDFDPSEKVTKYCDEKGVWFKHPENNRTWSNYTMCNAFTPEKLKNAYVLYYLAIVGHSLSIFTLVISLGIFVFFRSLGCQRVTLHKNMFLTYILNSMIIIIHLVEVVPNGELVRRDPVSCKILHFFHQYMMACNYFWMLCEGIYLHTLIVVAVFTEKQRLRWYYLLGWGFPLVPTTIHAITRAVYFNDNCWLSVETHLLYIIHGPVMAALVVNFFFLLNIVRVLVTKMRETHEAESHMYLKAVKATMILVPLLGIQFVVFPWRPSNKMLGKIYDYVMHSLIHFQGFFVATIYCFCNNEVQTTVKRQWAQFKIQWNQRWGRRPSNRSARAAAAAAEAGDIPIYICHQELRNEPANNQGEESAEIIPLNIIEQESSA
T1 sequence (O60896 24-148 partner): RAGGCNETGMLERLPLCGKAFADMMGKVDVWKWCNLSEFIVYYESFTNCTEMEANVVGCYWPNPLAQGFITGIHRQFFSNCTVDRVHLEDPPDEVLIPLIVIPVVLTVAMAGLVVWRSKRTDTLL
How it was run: (§1)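 Receptor-expressing cells (human receptors in 1321N1, rat receptors in HEK) incubated 30 min at room temperature with peptide in HBSS/HEPES pH 7.4, 0.1% BSA, 0.5 mM IBMX. cAMP read by HTRF; EC50 from 4-parameter fit as % of maximal amylin or calcitonin response.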

[2] = target: T2, human calcitonin receptor (hCTR) (Homo sapiens, UniProt P30988); assay: cAMP production in 1321N1 cells with stable recombinant expression of human calcitonin receptor (hCTR); assay type: cell-based; conditions: cAMP, 1321N1 cells, assay buffer with 0.1% BSA; read-out: EC50 (pM) hCTR
T2 construct: expressed in transfected cells
T2 sequence (P30988 25-474): T1 sequence (P30988 25-474)
How it was run: as §1

Row | Structure (SMILES) | Ratio (selectivity hAMYR vs hCTR, ratio of EC50 values at the two receptors) [1] | EC50 [1] [pM] | EC50 [2] [pM]
1 | CC[C@H](C)[C@H](NC(=O)[C@@H]1CCCN1C(=O)CNC(=O)[C@H](Cc1ccccc1)NC(=O)[C@H](CC(N)=O)NC(=O)C(C)(C)NC(=O)[C@H](CO)NC(=O)[C@H](CO)NC(=O)[C@H](Cc1c[nH]cn1)NC(=O)[C@H](CCCNC(=N)N)NC(=O)[C@H](CC(C)C)NC(=O)[C@H](Cc1ccccc1)NC(=O)[C@H](CC(N)=O)NC(=O)[C@H](C)NC(=O)[C@H](CC(C)C)NC(=O)[C@H](CCCNC(=N)N)NC(=O)[C@H](CCC(N)=O)NC(=O)[C@@H](NC(=O)[C@H](C)NC(=O)[C@@H]1CSSC[C@H](NC(=O)[C@@H](N)CCCCNC(=O)CC[C@H](NC(=O)CC[C@H](NC(=O)CCCCCCCCCCCCCCCCC(=O)O)C(=O)O)C(=O)O)C(=O)N[C@@H](CC(N)=O)C(=O)N[C@@H]([C@@H](C)O)C(=O)N[C@@H](C)C(=O)N[C@@H]([C@@H](C)O)C(=O)N1)[C@@H](C)O)C(=O)N[C@@H](CC(C)C)C(=O)N1CCC[C@H]1C(=O)N1CCC[C@H]1C(=O)N[C@H](C(=O)NC(C)(C)C(=O)N[C@H](C(=O)NCC(=O)N[C@@H](CO)C(=O)N[C@@H](CC(N)=O)C(=O)N[C@H](C(=O)N[C@@H](Cc1ccc(O)cc1)C(N)=O)[C@@H](C)O)C(C)C)[C@@H](C)O [Peptide 90, K(γE-γE-C18diacid)[CNTATC]ATQRLANFLRHSS(Aib)NFGPILPPT(Aib)VGSNTY-amide] (H-K([γGlu-γGlu-C18 diacid])CNTATCATQRLANFLRHSS[Aib]NFGPILPPT[Aib]VGSNTY-NH2; disulfide 2-7; N-terminus assumed) | 15 | 1060 | 15600
2 | CC[C@H](C)[C@H](NC(=O)[C@@H]1CCCN1C(=O)CNC(=O)[C@H](Cc1ccccc1)NC(=O)[C@H](CC(N)=O)NC(=O)[C@H](CC(N)=O)NC(=O)[C@](C)(CO)NC(=O)[C@H](CO)NC(=O)[C@H](Cc1c[nH]cn1)NC(=O)[C@@H](NC(=O)[C@H](CC(C)C)NC(=O)[C@H](Cc1ccccc1)NC(=O)[C@H](CC(N)=O)NC(=O)[C@H](C)NC(=O)[C@H](CC(C)C)NC(=O)[C@H](CCCNC(=N)N)NC(=O)[C@H](CCC(N)=O)NC(=O)[C@@H](NC(=O)[C@H](C)NC(=O)[C@@H]1CSSC[C@H](NC(=O)[C@@H](N)CCCCNC(=O)CC[C@H](NC(=O)CC[C@H](NC(=O)CCCCCCCCCCCCCCCCC(=O)O)C(=O)O)C(=O)O)C(=O)N[C@@H](CC(N)=O)C(=O)N[C@@H]([C@@H](C)O)C(=O)N[C@@H](C)C(=O)N[C@@H]([C@@H](C)O)C(=O)N1)[C@@H](C)O)C(C)C)C(=O)N[C@@H](CC(C)C)C(=O)N1CCC[C@H]1C(=O)N1CCC[C@H]1C(=O)N[C@H](C(=O)N[C@@H](CC(N)=O)C(=O)N[C@H](C(=O)NCC(=O)N[C@@H](CO)C(=O)N[C@@H](CC(N)=O)C(=O)N[C@H](C(=O)N[C@@H](Cc1ccc(O)cc1)C(N)=O)[C@@H](C)O)C(C)C)[C@@H](C)O [Peptide 22, K(γE-γE-C18diacid)[CNTATC]ATQRLANFLVHS(αMeSer)NNFGPILPPTNVGSNTY-amide] (H-K([γGlu-γGlu-C18 diacid])CNTATCATQRLANFLVHS[αMeS]NNFGPILPPTNVGSNTY-NH2; disulfide 2-7; N-terminus assumed) | 40 | 162 | 6540
3 | CC[C@H](C)[C@H](NC(=O)[C@@H]1CCCN1C(=O)CNC(=O)[C@H](Cc1ccccc1)NC(=O)[C@H](CC(N)=O)NC(=O)[C@H](CC(N)=O)NC(=O)[C@H](CO)NC(=O)[C@H](CO)NC(=O)[C@H](Cc1c[nH]cn1)NC(=O)C(C)(C)NC(=O)[C@H](CC(C)C)NC(=O)[C@H](Cc1ccccc1)NC(=O)[C@H](Cc1c[nH]cn1)NC(=O)[C@H](C)NC(=O)[C@H](CC(C)C)NC(=O)[C@H](CCCNC(=N)N)NC(=O)[C@H](CCC(N)=O)NC(=O)[C@@H](NC(=O)[C@H](C)NC(=O)[C@@H]1CSSC[C@H](NC(=O)[C@@H](N)CCCCNC(=O)CC[C@H](NC(=O)CCCCCCCCCCCCCCCCC(=O)O)C(=O)O)C(=O)N[C@@H](CC(N)=O)C(=O)N[C@@H]([C@@H](C)O)C(=O)N[C@@H](C)C(=O)N[C@@H]([C@@H](C)O)C(=O)N1)[C@@H](C)O)C(=O)N[C@@H](CC(C)C)C(=O)N1CCC[C@H]1C(=O)N1CCC[C@H]1C(=O)N[C@H](C(=O)N[C@@H](CC(N)=O)C(=O)N[C@H](C(=O)NCC(=O)N[C@@H](CO)C(=O)N[C@@H](CC(N)=O)C(=O)N[C@H](C(=O)N[C@@H](Cc1ccc(O)cc1)C(N)=O)[C@@H](C)O)C(C)C)[C@@H](C)O [Peptide 144] (H-K([γGlu-C18 diacid])CNTATCATQRLAHFL[Aib]HSSNNFGPILPPTNVGSNTY-NH2; disulfide 2-7; N-terminus assumed) | 5.3 | 138 | 725
4 | CC(C)C[C@H](NC(=O)[C@H](CCCNC(=N)N)NC(=O)[C@H](CCC(N)=O)NC(=O)[C@@H](NC(=O)[C@H](C)NC(=O)[C@@H]1CSSC[C@H](NC(=O)[C@H](CCCCN)NC(=O)[C@@H](N)CCCCNC(=O)CC[C@H](NC(=O)CCCCCCCCCCCCCCCCC(=O)O)C(=O)O)C(=O)N[C@@H](CC(N)=O)C(=O)N[C@@H]([C@@H](C)O)C(=O)N[C@@H](C)C(=O)N[C@@H]([C@@H](C)O)C(=O)N1)[C@@H](C)O)C(=O)N[C@@H](C)C(=O)N[C@@H](CC(N)=O)C(=O)N[C@@H](Cc1ccccc1)C(=O)N[C@@H](CC(C)C)C(=O)N[C@H](C(=O)N[C@@H](Cc1c[nH]cn1)C(=O)N[C@@H](CO)C(=O)N[C@@H](CO)C(=O)N[C@@H](CC(N)=O)C(=O)N[C@@H](CC(N)=O)C(=O)N[C@@H](Cc1ccccc1)C(=O)NCC(=O)N1CCC[C@H]1C(=O)NC(C)(C)C(=O)N[C@@H](CC(C)C)C(=O)N1CCC[C@H]1C(=O)N1CCC[C@H]1C(=O)N[C@H](C(=O)N[C@@H](CC(N)=O)C(=O)N[C@H](C(=O)NCC(=O)N[C@@H](CO)C(=O)N[C@@H](CC(N)=O)C(=O)N[C@H](C(=O)N[C@@H](Cc1ccc(O)cc1)C(N)=O)[C@@H](C)O)C(C)C)[C@@H](C)O)C(C)C [Peptide 106, K(γE-C18diacid)K[CNTATC]ATQRLANFLVHSSNNFGP(Aib)LPPTNVGSNTY-amide] (H-K([γGlu-C18 diacid])KCNTATCATQRLANFLVHSSNNFGP[Aib]LPPTNVGSNTY-NH2; disulfide 3-8; N-terminus assumed) | 7 | 473 | 3420
5 | CC[C@H](C)[C@H](NC(=O)[C@@H]1CCCN1C(=O)CNC(=O)[C@H](Cc1ccccc1)NC(=O)[C@H](CC(N)=O)NC(=O)[C@H](CC(N)=O)NC(=O)[C@H](CO)NC(=O)[C@H](CO)NC(=O)[C@H](Cc1c[nH]cn1)NC(=O)C(C)(C)NC(=O)[C@H](CC(C)C)NC(=O)[C@H](Cc1ccccc1)NC(=O)[C@H](CC(N)=O)NC(=O)[C@H](C)NC(=O)[C@H](CC(C)C)NC(=O)[C@H](CCCNC(=N)N)NC(=O)[C@H](CCC(N)=O)NC(=O)[C@@H](NC(=O)[C@H](C)NC(=O)[C@@H]1CSSC[C@H](NC(=O)[C@H](CCCCN)NC(=O)[C@@H](N)CCCCNC(=O)CC[C@H](NC(=O)CCCCCCCCCCCCCCCCC(=O)O)C(=O)O)C(=O)N[C@@H](CC(N)=O)C(=O)N[C@@H]([C@@H](C)O)C(=O)N[C@@H](C)C(=O)N[C@@H]([C@@H](C)O)C(=O)N1)[C@@H](C)O)C(=O)NC(C)(C)C(=O)N1CCC[C@H]1C(=O)N1CCC[C@H]1C(=O)N[C@H](C(=O)N[C@@H](CC(N)=O)C(=O)N[C@H](C(=O)NCC(=O)N[C@@H](CO)C(=O)N[C@@H](CC(N)=O)C(=O)N[C@H](C(=O)N[C@@H](Cc1ccc(O)cc1)C(N)=O)[C@@H](C)O)C(C)C)[C@@H](C)O [Peptide 95, K(γE-C18diacid)K[CNTATC]ATQRLANFL(Aib)HSSNNFGPI(Aib)PPTNVGSNTY-amide] (H-K([γGlu-C18 diacid])KCNTATCATQRLANFL[Aib]HSSNNFGPI[Aib]PPTNVGSNTY-NH2; disulfide 3-8) | 2 | 691 | 1170
